Data reported in US20210180023A1, “CARDIAC REPAIR BY REPROGRAMMING OF ADULT CARDIAC FIBROBLASTS INTO CARDIOMYOCYTES” (The Board of Regents of the University of Texas System, priority 2017, published 2021).

Assays:
[1] = test system: adult tail-tip fibroblasts (TTFs) from αMHC-GFP mice; assay: Human retroviral ORF cDNA library screen for AGHMT-mediated cardiac reprogramming (high-throughput imaging of αMHC-GFP and cTnT); assay type: cell-based, mouse; conditions: individual cDNA expressed together with 5F (AGHMT), 9 days, Z-score ≥2 activator, ≤−2 inhibitor
Source text: Isolation of mouse tail-tip fibroblast. For isolation of adult mouse tail-tip fibroblasts, tails were cut from 8-12 weeks old adult wild-type or αMHC-GFP mouse and were minced into […] with razor blades after peeling off the superficial dermis. The minced tails were placed in fibroblast growth medium (DMEM supplemented with 10% FBS and 1% (vol/vol) penicillin/streptomycin). Tail-tip fibroblasts migrated out from the explants within 1 week and were passaged one time before use.
Construction of human retroviral ORFs library. Gateway-compatible Human ORFs pEntry vectors were purchased from Thermo Fisher Scientific. Gateway-compatible retroviral destination vector, pMXs-gw, was a gift from Shinya Yamanaka (Addgene plasmid #18656) (Takahashi, 2006). The inventors transferred each ORF individually into pMXs-gw by performing site-specific LR recombination using Gateway LR Clonase II Enzyme Mix kit (Thermo Fisher Scientific).
Retroviruses production, cellular reprogramming and treatment. For retroviruses production, Platinum E cells were seeded into culture dishes (1×10^5 cells/cm2) one day before transfection in DMEM supplemented with 10% FBS and 1% penicillin/streptomycin. Cells reached ˜80% confluency on the day of transfection. DNA plasmids were transfected into Platinum E cells using FuGENE 6 transfection reagent. Twenty-four hours after transfection, wild type or αMHC-GFP tail-tip fibroblasts were seeded into culture dishes or plates that were precoated with SureCoat (Cellutron) for one hour at a density of 6×10^4/cm^2. Forty-eight hours after transfection, polybrene was added to viral medium that was filtered through a 0.45-μm filter at a concentration of […]. The mixture replaced the growth medium in the cell culture plate with tail-tip fibroblasts. The viral infection was serially repeated twice. Twenty-four hours after the second infection, the viral medium was replaced with induction medium, composed of DMEM/199 (4:1), 10% conditioned medium obtained from neonatal rat cardiomyocyte culture, 10% FBS, 5% horse serum, 1% penicillin/streptomycin, 1% nonessential amino acids, 1% essential amino acids, 1% B-27, 1% insulin-selenium-transferrin, 1% vitamin mixture, and 1% sodium pyruvate (Invitrogen). Small molecule treatments were used throughout the reprogramming process […] (Sigma).
Immunocytochemistry. For immunocytochemistry, cells were fixed in 4% paraformaldehyde for 15 min and permeabilized with 0.1% Triton-X in room temperature. Cells were washed with PBS for three times followed by blocking with 10% goat serum for 1 hr. Cells then were incubated with mouse monoclonal anti-cardiac Troponin T (cTnT) antibody (Thermo Scientific) at 1:500 dilutions and rabbit anti-GFP antibody (Thermo Scientific) at 1:500 dilutions in 5% Goat serum for 1 hr. After washing with PBS three times, Cells then were incubated with donkey anti-mouse alexa fluor 647 (Invitrogen) at 1:500 and goat anti-rabbit Alexa fluor 488 at 1:500 (Invitrogen).
Identification of activators and inhibitors of cardiac reprogramming in adult fibroblasts. The inventors' previously optimized cardiac reprogramming protocol with five factors (AGHMT, also called 5F) was able to reprogram ˜3% efficiency of adult TTFs to iCMs as measured by activation of a cardiac-specific αMHC-GFP transgene and cardiac troponin T (cTnT) immunostaining (Zhou et al., 2015). To identify additional regulators of cardiac reprogramming, the inventors created a retroviral expression library consisting of 1,052 open reading frame (ORF) cDNAs representing 786 human transcription factor, cytokine, epigenetic regulator and nuclear receptor genes (Table 51). The inventors screened this expression library for activators and inhibitors of cardiac reprogramming by expressing individual cDNAs together with 5F in isolated TTFs from αMHC-GFP mice, as schematized in FIG. 1A. […]

[2] = target: T1, Myc-tagged GATA4 (Homo sapiens, UniProt P43694); assay: Co-immunoprecipitation in transfected HEK293 cells; assay type: binding
T1 construct: expressed in transfected cells; host or cells: HEK293
Protocol: (§1) Immunoprecipitation and Western Blot Analysis. Flag-epitope tag ZNF281 fusion protein were co-expressed with myc-epitope tag fusion GATA4, HAND2, MEF2C or TBX5 in HEK293 cells for 48 hours. Cell lysates were incubated overnight with 1 μg of mouse monoclonal anti-FLAG antibody (Sigma). The cell lysates were pulldown using magnetic Protein G Dynabeads (Invitrogen) and then the Flag-ZNF281 was eluted using 0.5 mg/ml of free Flag peptide (Sigma). The final elution and the input obtained before the immunoprecipitation was analyzed by SDS-PAGE western blot using a mouse monoclonal anti-Myc antibody (Novex) or mouse monoclonal anti-FLAG antibody (Sigma).
(§2) ZNF281 is a GATA4 coactivator. Previous reports described the influence of ZNF281 on pluripotency, stemness and epithelial-mesenchymal transition (EMT) (Hahn and Hermeking, 2014). However, the potential involvement of ZNF281 in cardiac development has not been previously explored. To begin to define the molecular mechanism whereby ZNF281 enhances cardiac reprogramming, the inventors performed co-immunoprecipitation assays with ZNF281 and each reprogramming transcription factor in transfected HEK293 cells.

[3] = test system: Myc-tagged HAND2, MEF2c, or TBX5; assay: Co-immunoprecipitation in transfected HEK293 cells; assay type: binding
Protocol: as §1, §2

T1 sequence (P43694 whole entry): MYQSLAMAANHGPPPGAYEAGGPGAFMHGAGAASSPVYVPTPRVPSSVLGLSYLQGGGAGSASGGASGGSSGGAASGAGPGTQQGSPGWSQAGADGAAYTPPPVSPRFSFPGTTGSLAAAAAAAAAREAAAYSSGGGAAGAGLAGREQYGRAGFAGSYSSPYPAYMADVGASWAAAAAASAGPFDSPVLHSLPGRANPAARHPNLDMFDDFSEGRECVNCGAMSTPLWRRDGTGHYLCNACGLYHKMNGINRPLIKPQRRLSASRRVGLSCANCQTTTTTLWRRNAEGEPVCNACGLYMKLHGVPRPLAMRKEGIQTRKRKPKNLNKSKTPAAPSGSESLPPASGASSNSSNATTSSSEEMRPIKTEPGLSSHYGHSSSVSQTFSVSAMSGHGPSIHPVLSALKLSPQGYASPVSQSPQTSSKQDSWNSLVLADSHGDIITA

For Zinc finger protein 281 [ZNF281], the “cTnT Z-score” value [1] was 7.0, the “αMHC Z-score” value ([1]; αMHC-GFP) was 2.9 and the “co-immunoprecipitation of FLAG-tagged ZNF281” value [2] was “co-immunoprecipitated”. The “co-immunoprecipitation of FLAG-tagged ZNF281” value [3] was “not with the other three factors”.
